Experimental data: patent US20220071955A1, “Methods of Treatment, Prevention and Diagnosis” (The Walter and Eliza Hall Institute of Medical Research, priority 2018, published 2022)
Entries after “also recorded” stand apart in the source; their conditions may differ.

How the values were obtained:
[1] = tested on: TDP-43 overexpressing Thp1 cells; experiment: IFNB1 and TNF induction (qPCR) in TDP-43 overexpressing Thp1 cells; format: cell-based, human; conditions: Thp1 cells overexpressing TDP-43 (WT or Q331K)
Method: (§1) Immortalised mouse embryonic fibroblasts (MEFs) lacking MAVS, PKR, cGAS, STING, Bax/Bak, Mcl1 or WT control were maintained in DME/KELSO medium (in-house DMEM containing 40 mM sodium bicarbonate, 1 mM HEPES, 0.0135 mM folic acid, 0.24 mM L-asparagine, 0.55 mM L-arginine, 1×Pen/Strep and 22.2 mM D-glucose) supplemented with 10% FBS (Sigma-Aldrich). Transfection of MEFs was performed using FuGENE HD (Promega). AGK−/− (gift from D. Stojanovski) and WT HEK293T cells were maintained in DMEM supplemented with 10% FBS, 100 U/mL Penicillin and 100 μg/mL Streptomycin. Lipofectamine 2000 (Life Technologies) was used to transfect HEK293T cells according to manufacturers' instructions. Human monocytic THP-1 cells were grown in RPMI-1640 with 10% FBS, 100 U/mL Penicillin and 100 μg/mL Streptomycin. The above cell culture was conducted at 37° C. in a humidified atmosphere with 10% CO2. […] The depletion was analysed using real-time qPCR to measure expression of mitochondrial DNA genes and nuclear genes (see Quantitative real-time PCR below).
(§2) Total RNA was isolated using the ISOLATE II RNA Mini Kit (Bioline) as per manufacturers' instructions and reverse transcribed using oligo(dT) nucleotides. Primers for cytokines, mitochondrial DNA and housekeeping genes were used as described previously (White et al., 2014; De Nardo et al., 2014). Others were designed using the Integrated DNA Technologies online tool as follows: hsIFNB1 FW, 5′-TGTCGCCTACTACCTGTTGTGC-3′ (SEQ ID NO:17); hsIFNB1 RV, 5′-AACTGCAACCTTTCGAAGCC-3′ (SEQ ID NO:18); mmIfnb1 FW: 5′-CCAGCTCCAAGAAAGGACGA-3′ (SEQ ID NO:19); mmIfnb1 RV: 5′-TGGATGGCAAAGGCAGTGTA-3′ (SEQ ID NO:20); mmIfna6 FW: 5′-GCTTTCCTGATGGTTTTGGTG-3′ (SEQ ID NO:21); mmIfna6 RV: 5′-AGGCTTTCTTGTTCCTGAGG-3′ (SEQ ID NO:22). Quantitative real-time PCR was performed using SYBR Green/ROX qPCR Master Mix (Thermo Scientific) on a ViiA 7 Real-Time PCR system (Thermo Scientific).
Cytokine expression from qPCR is represented as gene expression relative to Hprt expression as δCt method. Where indicated, relative gene expression in TDP-43 WT or mutant overexpressing cells was further normalised to expression in vector control transfected/overexpressed cells of the same genotype in the same experiment and represented as fold change. Data are typically mean±s.e.m and analysed by t-test between two groups or one- or two-way ANOVA followed by a Sidak or Dunnett multiple comparison test as appropriate. GraphPad Prism 7 was used for all charts and statistical analyses. A P values <0.05 was considered as significant.
Finally, to determine if pharmacological blockade of the cGAS-STING pathway is feasible, recently described inhibitors of cGAS (RU.521, described in Vincent et al., 2017) and STING (H-151 described in Haag et al) were tested. […]

TDP-43 mutant mice = experiment: Rotarod test in TDP-43 mutant mice with established disease; format: in vivo, mouse; conditions: H-151 (3.75 mM) i.p. every the other day for 4 weeks from 120 days of age
[2] = tested on: human iPSC-derived motor neurons; experiment: IFNB1 and TNF gene induction (qPCR) in human iPSC-derived motor neurons; format: cell-based; conditions: motor neurons from healthy controls and ALS patients with TDP-43 mutations
Excerpt: as §2
(§3) The established human iPSC lines used in this study included two controls (NCRM-1 and NCRM-5) from the National Institute of Neurological Disorders and Stroke, one control and one ALS patient from Alessandro Rosa, one ALS patient from RIKEN and one ALS patient (TALSTDP-47.10) from the Target ALS Foundation. All iPSCs were maintained on Matrigel (Corning, 354277)-coated 6-well plates in mTeSR1 (STEMCell Technologies, 85850) containing 1× Primocin (Invivogen, ant-pm-1) and passaged 1:6 using ReLeSR (STEMCell Technologies, 05872) with ROCK inhibitor Y-27632 (STEMCell Technologies, 72304) for the first 24 hours. The medium was replaced daily. Cells were cyropreserved in mTeSR1/10% DMSO.
(§4) Differentiation of iPSCs into ChAT^+ motor neurons was performed as described previously (Du et al., 2015) All medium and reagents from Gibco unless otherwise stated.
(§5) Human iPSCs were cultured in a chemically defined Neural Medium: DMEM/F12:Neurobasal (1:1) supplemented with 0.5×N2, 0.5×B27, 0.1 mM L-ascorbic acid (Sigma), 1× Glutamax and 1× Primocin (Invivogen) containing 3 μM CHIR99021 (STEMCell Technologies, 72054), 2 μM Dorsomorphin (STEMCell Technologies, 72102) and 2 μM SB431542 (STEMCell Technologies, 72234) for 6 days, and the medium was changed every other day.
The NEPs were dissociated with ReLeSR and cultured 1:6 on Matrigel-coated plates in the Neural Medium containing 1 μM CHIR99021, 2 μM Dorsomorphin and 2 μM SB431542 for 6 days. Y-27632 was used for the first 24 hours. The medium was changed every other day. At this stage of differentiation, MNPs were either expanded in the Neural Medium containing 3 μM CHIR99021, 2 μM Dorsomorphin, 2 μM SB431542, 0.1 μM all-trans retinoic acid (Sigma, R2500), 0.5 μM Purmorphamine (STEMCell Technologies, 72204) and 0.5 mM Valporic Acid (STEMCell Technologies, 72292) prior to MN diffrenertiation or cryopreserved in DMEM/F12 containing 10% FBS and 10% DMSO.
The MNPs were dissociated with ReLeSR and cultured on Matrigel-coated plates in the Neural Medium containing 0.5 μM all-trans RA and 0.1 μM Pur for 6 days into premature MNX1^+ MN. Y-27632 was used for the first 24 hours and the medium was replaced every other day. Subsequently, cells were detached with Accutase (Merck Millipore, SCR005) to generate single cell suspension and matured in the medium supplemented with 0.1 μM Compound E (STEMCell Technologies, 73954) for 10 days into ChAT^+ MNs. The medium was replaced every other day. Cells were plated in Matrigel-coated 8-well chamber slides (iBidi, 80826) to confirm cellular markers of MNs, including MNX1 (Merck Millipore, ABN174) and ChAT (Merck Millipore, […]) along with βIII-Tubulin (Promega, clone 5G8, G7121) staining using an inverted SP8 confocal microscopy (Leica).

[3] = tested on: ALS patient iPSC-derived motor neurons; experiment: LDH cytotoxicity assay and brightfield imaging of iPSC-derived motor neurons; format: cell-based, human; conditions: H-151 1 μM, 4-week treatment
Excerpt: as §3, §4
as §5, with “day. […]” for “day.”

MEFs = experiment: Super-resolution confocal microscopy of TDP-43-mediated DNA relocation from mitochondria into the cytoplasm; format: cell-based, mouse; conditions: CsA 25 μM
Method: MEF cell lines expressing doxycycline-induced Flagged TDP-43 were seeded onto glass coverslips (18 mm×18 mm, thickness 1½, Zeiss) for indicated times and prepared for imaging as previously described (McArthur et al., 2018). In brief, cells were fixed, blocked and incubated overnight at 4° C. with primary antibodies as follows: anti-Flag (In-house, 9H1), anti-DNA (ProGen, AC-30-10) and anti-TOM20 (Santa Cruz Biotech, sc-11415) in blocking buffer. Following two washes in PBS and an one-hour incubation with secondary antibodies [goat anti-rabbit AF647 (A21245), goat anti-mouse AF488 (A11001 and goat anti-rat AF568, A11077) from Life Technologies], coverslips were mounted onto the microscopy slide using Prolong Diamond Antifade Mountant (ThermoFisher Scientific). Three color imaging was performed on the OMX-SR system (GE Healthcare) using a 60 Å˜1.42 NA oil immersion lens (Olympus).

293T cells = experiment: Ifnb1 gene expression induced by TDP-43 (qPCR); format: cell-based; conditions: CsA 25 μM
Method: as §1
Total RNA was isolated using the ISOLATE II RNA Mini Kit (Bioline) as per manufacturers' instructions and reverse transcribed using oligo(dT) nucleotides. […] Quantitative real-time PCR was performed using SYBR Green/ROX qPCR Master Mix (Thermo Scientific) on a ViiA 7 Real-Time PCR system (Thermo Scientific).

Row | Compound | IFNB1 induction [1] | TNF induction [1] | IFNB1 gene induction ([2]; ROS inhibitors 0.1-1 μM) | TNF gene induction ([2]; ROS inhibitors 0.1-1 μM) | other results
1 | CCc1ccc(NC(=O)Nc2c[nH]c3ccccc23)cc1 [H-151] | prevent | prevent |  |  | latency to fall in a rotarod test (TDP-43 mutant mice): significantly improved; IFNB1 gene induction ([2]; H-151 1 μM): prevent; TNF gene induction ([2]; H-151 1 μM): prevent; ALS-associated cytotoxicity (LDH, imaging) [3]: mitigates ALS-associated cytotoxicity
2 | COC1=C(OC)C(=O)C(CCCCCCCCCC[P+](c2ccccc2)(c2ccccc2)c2ccccc2)=C(C)C1=O [MitoQ] |  |  | prevent | prevent | 
3 | CC1(C)CC(NC(=O)C[P+](c2ccccc2)(c2ccccc2)c2ccccc2)CC(C)(C)N1[O] [MitoTEMPO] |  |  | prevent | prevent | 
4 | Cc1nn(-c2nc3ccc(Cl)c(Cl)c3[nH]2)c(O)c1C1OC(=O)c2ccccc21 (stereo not shown) [RU.521] | prevent | prevent |  |  | IFNB1 gene induction ([2]; RU.521 10 μM): prevent; TNF gene induction ([2]; RU.521 10 μM): prevent
5 | cyclosporin A [CsA] |  |  |  |  | TDP-43-mediated DNA relocation from mitochondria into the cytoplasm (MEFs): prevented mtDNA leakage into the cytoplasm; also recorded: significantly reduced; Ifnb1 gene expression induced by TDP-43 (293T cells): prevents
